Where a name gives a salt, the structure may show the parent alone.
biological target: T1, PDE10A (human) (Homo sapiens, UniProt Q9Y233); assay: Measurement of PDE activity (HTRF cAMP kit), human PDE10A; assay type: biochemical; conditions: PDE enzymatic reaction, substrate 20 nM for PDE10, 60 minutes at 29 C
T1 construct: purchased BPS Bioscience
Method: The recombinant PDE proteins are used in in vitro enzymatic reaction for measurement of PDE activity. These recombinant proteins, including PDE10A (human, rat and mouse PDE10) and isoforms of PDEs 1, 3, 4, and 5, were purchased from commercial vendor BPS Bioscience. The enzymatic activity of PDEs was determined by cAMP measurement kit from CisBio (IBA) using HTRF technology.
The PDE enzymatic reaction was carried out in assay buffer (20 mM Tris-HCl pH7.5, 10 mM MgCl2, 0.1% bovine serum albumin) containing enzyme and substrate. The PDE enzymes concentration ranged from 10 pM-250 pM, depending on each enzyme's specific activity. The substrate cyclic nucleotide (cAMP or cGMP) concentration used in the assay was 20 nM for PDE10, and 100 nM for other PDEs. The inhibitory effect of compound was determined by incubating various concentration of inhibitor in the enzymatic assay. Typically, compound was serial diluted in DMSO then further diluted in assay buffer. Next, the compound at varying concentration was mixed with PDE enzyme. The reaction was initiated by addition of cyclic nucleotide substrate, and incubated for 60 minutes at 29 C. The reaction was stopped by addition of lysis buffer from assay kit. The cAMP-d2 and anti-cAMP cryptate in the lysis buffer detected the level of cAMP left from the PDE hydrolysis reaction. The PDE activity is reversely correlated with the amount of cAMP left in the reaction and can be converted to the percent activity of an uninhibited control (100%). Thus, IC50 value of inhibitor can be obtained by plotting inhibitor concentration against PDE activity at that concentration.

T1 sequence (Q9Y233 whole entry): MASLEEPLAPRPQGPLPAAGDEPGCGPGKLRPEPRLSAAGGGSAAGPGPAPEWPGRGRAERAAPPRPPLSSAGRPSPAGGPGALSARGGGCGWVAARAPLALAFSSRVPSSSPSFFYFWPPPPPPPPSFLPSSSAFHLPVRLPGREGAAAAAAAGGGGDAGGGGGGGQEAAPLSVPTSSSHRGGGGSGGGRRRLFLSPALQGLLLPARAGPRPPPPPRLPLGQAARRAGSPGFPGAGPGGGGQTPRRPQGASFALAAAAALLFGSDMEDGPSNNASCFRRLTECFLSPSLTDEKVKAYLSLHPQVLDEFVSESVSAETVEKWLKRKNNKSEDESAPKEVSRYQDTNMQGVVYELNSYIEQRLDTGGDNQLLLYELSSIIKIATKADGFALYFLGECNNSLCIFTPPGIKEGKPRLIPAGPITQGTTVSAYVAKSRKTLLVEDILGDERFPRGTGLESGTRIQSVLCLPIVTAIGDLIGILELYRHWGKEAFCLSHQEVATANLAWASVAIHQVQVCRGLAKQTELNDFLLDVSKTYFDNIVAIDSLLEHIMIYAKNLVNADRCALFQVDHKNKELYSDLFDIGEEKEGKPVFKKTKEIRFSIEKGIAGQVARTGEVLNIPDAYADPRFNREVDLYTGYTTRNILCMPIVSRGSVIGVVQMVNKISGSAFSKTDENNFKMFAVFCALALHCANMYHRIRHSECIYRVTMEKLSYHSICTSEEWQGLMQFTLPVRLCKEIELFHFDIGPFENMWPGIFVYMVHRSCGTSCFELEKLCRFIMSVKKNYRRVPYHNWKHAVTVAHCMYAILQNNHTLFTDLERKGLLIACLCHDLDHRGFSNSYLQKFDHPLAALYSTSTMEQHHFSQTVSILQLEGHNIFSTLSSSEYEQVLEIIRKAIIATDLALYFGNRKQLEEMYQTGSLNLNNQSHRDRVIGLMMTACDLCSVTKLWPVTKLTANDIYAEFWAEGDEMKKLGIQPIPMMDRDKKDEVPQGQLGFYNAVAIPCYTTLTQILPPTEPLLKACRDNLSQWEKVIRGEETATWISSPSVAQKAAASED

Row | IC50 [nM] | Compound
1 | < 100 | CCn1c(CCN2Cc3cccc(-c4ccncc4)c3C2=O)nc2ccccc21 [Example 222, 2-[2-(1-Ethyl-1H-benzoimidazol-2-yl)-ethyl]-7-pyridin-4-yl-2,3-dihydro-isoindol-1-one trifluoroacetate]
2 | 200 to 500 | COc1ccc(-c2cccc3c2C(=O)N(CCc2ccc4ccccc4n2)C3)cc1F [Example 32, 7-(3-Fluoro-4-methoxy-phenyl)-2-(2-quinolin-2-yl-ethyl)-2,3-dihydro-isoindol-1-one]
3 | < 100 | CCc1ccc(CCN2Cc3nccc(N4CCOCC4)c3C2=O)nc1 [compound 499, 6-[2-(5-Ethyl-2-pyridyl)ethyl]-4-morpholino-7H-pyrrolo[3,4-b]pyridin-5-one trifluoroacetate]
4 | < 100 | O=C1c2c(C3=COCC3)ccnc2CN1CCc1ccc2ccccc2n1 [Example 266, 4-(4,5-Dihydro-furan-3-yl)-6-(2-quinolin-2-yl-ethyl)-6,7-dihydro-pyrrolo[3,4-b]pyridin-5-one]
5 | < 100 | O=C1c2cccc(-c3ccsc3)c2CN1CCc1ccc2ccccc2n1 [Example 345, 2-(2-Quinolin-2-yl-ethyl)-4-thiophen-3-yl-2,3-dihydro-isoindol-1-one]
6 | < 100 | O=C1c2cccc(-c3ccncc3)c2CN1CCc1ccc2ccccc2n1 [Example 181, 4-Pyridin-4-yl-2-(2-quinolin-2-yl-ethyl)-2,3-dihydro-isoindol-1-one]
7 | < 100 | O=C1c2cccc(-c3ccoc3)c2CN1CCc1ccc2ccccc2n1 [Example 346, 4-Furan-3-yl-2-(2-quinolin-2-yl-ethyl)-2,3-dihydro-isoindol-1-one]
8 | 100 to 200 | COc1cnccc1-c1cccc2c1CN(CCc1ccc3ccccc3n1)C2=O [compound 388, 4-(3-Methoxy-4-pyridyl)-2-[2-(2-quinolyl)ethyl]isoindolin-1-one]
9 | 200 to 500 | CCCn1c(CCN2Cc3cccc(N4CCOCC4)c3C2=O)nc2ccccc21 [Example 305, 7-Morpholin-4-yl-2-[2-(1-propyl-1H-benzoimidazol-2-yl)-ethyl]-2,3-dihydro-isoindol-1-one trifluoroacetate]
10 | < 100 | COc1ccc(-c2cccc3c2C(=O)N(CCc2ccc4ccccc4n2)C3)cc1 [Example 23, 7-(4-Methoxy-phenyl)-2-(2-quinolin-2-yl-ethyl)-2,3-dihydro-isoindol-1-one]
11 | 100 to 200 | COc1ncc(-c2cccc3c2C(=O)N(CCc2ccc4ccccc4n2)C3)cn1 [Example 61, 7-(2-Methoxy-pyrimidin-5-yl)-2-(2-quinolin-2-yl-ethyl)-2,3-dihydro-isoindol-1-one]
12 | < 100 | O=C1c2c(cccc2-c2cncc(F)c2)CN1CCc1ccc2ccccc2n1 [Example 77, 7-(5-Fluoro-pyridin-3-yl)-2-(2-quinolin-2-yl-ethyl)-2,3-dihydro-isoindol-1-one]
13 | < 100 | O=C1c2c(cccc2-c2cccnc2)CN1CCc1ccc2ccccc2n1 [Example 30, 7-Pyridin-3-yl-2-(2-quinolin-2-yl-ethyl)-2,3-dihydro-isoindol-1-one]
14 | 100 to 200 | O=C1c2c(cccc2-c2ccc3c(c2)OCO3)CN1CCc1ccc2ccccc2n1 [Example 34, 7-Benzo[1,3]dioxol-5-yl-2-(2-quinolin-2-yl-ethyl)-2,3-dihydro-isoindol-1-one]
15 | < 100 | O=C1c2c(-c3ccncc3)ccnc2CN1CCc1cc(-c2ccncc2)c2ccccc2n1 [compound 484, 4-(4-Pyridyl)-6-[2-[4-(4-pyridyl)-2-quinolyl]ethyl]-7H-pyrrolo[3,4-b]pyridin-5-one]

More lines, now with the values behind:

Row | Compound | IC50 [nM]
16 | Cn1ccc(-c2cccc3c2CN(CCc2ccc4ccccc4n2)C3=O)c1 [Example 352, 4-(1-Methyl-1H-pyrrol-3-yl)-2-(2-quinolin-2-yl-ethyl)-2,3-dihydro-isoindol-1-one] | 100 to 200
17 | CC(C)n1c(CCN2Cc3cccc(N4CCOCC4)c3C2=O)nc2ccccc21 [Example 304, 2-[2-(1-Isopropyl-1H-benzoimidazol-2-yl)-ethyl]-7-morpholin-4-yl-2,3-dihydro-isoindol-1-one trifluoroacetate] | 100 to 200
18 | Cn1c2cccc(-c3ccncc3)c2c(=O)n1CCc1ccc2ccccc2n1 [Example 17, 1-Methyl-4-(pyridin-4-yl)-2-(2-(quinolin-2-yl)ethyl)-1,2-dihydroindazol-3-one] | < 100
19 | O=C1c2cccc(-c3cccnc3)c2C(=O)N1CCc1ccc2ccccc2n1 [Example 271, 4-Pyridin-3-yl-2-(2-quinolin-2-yl-ethyl)-isoindole-1,3-dione] | < 100
20 | O=C1c2c(cccc2NCc2cccnc2)CN1CCc1ccc2ccccc2n1 [Example 126, 7-[(Pyridin-3-ylmethyl)-amino]-2-(2-quinolin-2-yl-ethyl)-2,3-dihydro-isoindol-1-one] | 200 to 500
21 | O=C1c2c(cccc2-c2ccco2)CN1CCc1ccc2ccccc2n1 [Example 31, 7-Furan-2-yl-2-(2-quinolin-2-yl-ethyl)-2,3-dihydro-isoindol-1-one] | 200 to 500
22 | O=C1c2c(cccc2-c2ccncc2)CN1CCc1nc2ccccc2n1CCN1CCOCC1 [Example 292, 2-{2-[1-(2-Morpholin-4-yl-ethyl)-1H-benzoimidazol-2-yl]-ethyl}-7-pyridin-4-yl-2,3-dihydro-isoindol-1-one trifluoroacetate] | < 100
23 | O=C1c2c(cccc2-c2cccc(F)c2)CN1CCc1ccc2ccccc2n1 [Example 27, 7-(3-Fluoro-phenyl)-2-(2-quinolin-2-yl-ethyl)-2,3-dihydro-isoindol-1-one] | 100 to 200
24 | O=C1c2c(cccc2-c2ccoc2)CN1CCc1ccc2ccccc2n1 [Example 46, 7-Furan-3-yl-2-(2-quinolin-2-yl-ethyl)-2,3-dihydro-isoindol-1-one] | < 100
25 | O=C1c2c(N3CCOCC3)ccc(F)c2CN1CCc1ccc2ccccc2n1 [compound 440, 4-Fluoro-7-morpholino-2-[2-(2-quinolyl)ethyl]isoindolin-1-one] | < 100
26 | O=C1c2c(-c3ccsc3)ccnc2CN1CCc1cn2ccccc2n1 [compound 523, 6-(2-Imidazo[1,2-a]pyridin-2-ylethyl)-4-(3-thienyl)-7H-pyrrolo[3,4-b]pyridin-5-one] | < 100
27 | O=C1c2c(ccnc2-c2ccncc2)CN1CCc1ccc2ccccc2n1 [Example 1, 4-Pyridin-4-yl-2-(2-quinolin-2-yl-ethyl)-1,2-dihydro-pyrrolo[3,4-c]pyridin-3-one; compound with trifluoro-acetic acid] | < 100
28 | O=C1c2c(-c3cn[nH]c3)ccc(F)c2CN1CCc1ccc2ccccc2n1 [compound 442, 4-Fluoro-7-(1H-pyrazol-4-yl)-2-[2-(2-quinolyl)ethyl]isoindolin-1-one trifluoroacetate] | < 100
29 | O=C1c2c(-c3ccc(F)cc3)ccc(F)c2CN1CCc1ccc2ccccc2n1 [compound 444, 4-Fluoro-7-(4-fluorophenyl)-2-[2-(2-quinolyl)ethyl]isoindolin-1-one] | < 100
30 | O=C1c2c(-c3cccnc3)ccc(F)c2CN1CCc1ccc2ccccc2n1 [compound 438, 4-fluoro-7-(3-pyridyl)-2-[2-(2-quinolyl)ethyl]isoindolin-1-one] | < 100
31 | COc1cnccc1-c1ccnc2c1C(=O)N(CCc1ccc3ccccc3n1)C2 [compound 389, 4-(3-Methoxy-4-pyridyl)-6-[2-(2-quinolyl)ethyl]-7H-pyrrolo[3,4-b]pyridin-5-one] | 100 to 200
32 | COc1ccc(-c2ccc(OC)c3c2C(=O)N(CCc2ccc4ccccc4n2)C3)cc1 [Example 186, 4-Methoxy-7-(4-methoxy-phenyl)-2-(2-quinolin-2-yl-ethyl)-2,3-dihydro-isoindol-1-one] | 100 to 200
33 | Cn1cc(-c2cccc3c2C(=O)N(CCc2ccc4ccccc4n2)C3)cn1 [Example 70, 7-(1-Methyl-1H-pyrazol-4-yl)-2-(2-quinolin-2-yl-ethyl)-2,3-dihydro-isoindol-1-one] | 100 to 200
34 | O=C1c2c(cccc2-c2ccc3c(c2)CCO3)CN1CCc1ccc2ccccc2n1 [Example 56, 7-(2,3-Dihydro-benzofuran-5-yl)-2-(2-quinolin-2-yl-ethyl)-2,3-dihydro-isoindol-1-one] | 200 to 500
35 | O=C1c2c(OCCF)ccc(-c3ccncc3)c2C(=O)N1CCc1ccc2ccccc2n1 [compound 532, 4-(2-Fluoro-ethoxy)-7-pyridin-4-yl-2-(2-quinolin-2-yl-ethyl)-isoindole-1,3-dione] | < 100
36 | O=C1c2cccc(-c3ccc(F)cc3)c2CN1CCc1ccc2ccccc2n1 [Example 212, 4-(4-Fluoro-phenyl)-2-(2-quinolin-2-yl-ethyl)-2,3-dihydro-isoindol-1-one trifluoroacetate] | 200 to 500
37 | O=C1c2c(cccc2-c2ccccc2)CN1CCc1ccc2ccccc2n1 [Example 21, 7-Phenyl-2-(2-quinolin-2-yl-ethyl)-2,3-dihydro-isoindol-1-one] | 100 to 200
38 | O=C1c2c(N3CCC(F)(F)CC3)ccnc2CN1CCc1nc2ccccc2s1 [compound 527, 6-[2-(1,3-Benzothiazol-2-yl)ethyl]-4-(4,4-difluoro-1-piperidyl)-7H-pyrrolo[3,4-b]pyridin-5-one trifluoroacetate] | < 100

From patent US9938269B2, “Inhibitor compounds of phosphodiesterase type 10A” (ABBVIE INC., priority 2011, dated 2018)
